Test results: patent publication US5371102A, “Compositions and methods of inhibiting thyroid activity” (priority 1993, dated 1994)
“Also recorded” adds a separate entry of the source. Where two headings read alike, the source gives them in different places.

Legend:
[1] = biological target: T1, LPX (Bos taurus, UniProt P80025); test: LPX suicide inactivation kinetics; type: biochemical, bovine; settings: presence of hydrogen peroxide
T1 construct: purchased Sigma Chemical Company
Source text: (§1) Materials used in the examples below were obtained from the following sources. Bovine LPX, bovine liver catalase, glucose oxidase, 30% hydrogen peroxide, glucose, guaiacol, ABTS and deuterium oxide were purchased from Sigma Chemical Company. Selenium dioxide, MBI ^13 CH3 I and PBA were purchased from Aldrich Chemical Company and PBA was purified as previously described by Fieset et al., Reagents for Organic Synthesis, Vol. I, pp.135-139, John Wiley and Sons, N.Y. (1967). LPX purity was checked by PAGE, as described by Doerge, D.R., et al. in, Biochem. Pharmacol., Vol.36, pp.972-974 (1986). TPX was purified from hog thyroids obtained from a local slaughterhouse by published procedures. Doerge & Takazowa, Chemical Research in Toxicology, Vol. 3, pp. 98-101 (1990). TPX purity was determined by LC and its concentration determined spectophotometrically. Hydroperoxide concentrations were determined by iodometric titration, as described by Kolthoff, et al., in "Quantitative Chemical Analysis", Macmillan, London, pp.842-860 (1969). MMBI, and BI were synthesized by published procedures as described by Doerge, D.R., Biochem, Vol. 27, pp. 3697-3700 (1988) and were recrystallized from aqueous ethanol. MeBI was purified by distillation and DMeBI^+ was synthesized and purified by recrystallization from ethyl acetate/methanol. 1-^13 C-MMBI was synthesized from ^13 CH3 I according to the procedure disclosed by Doerge, D.R., in, J. Lab. Comp. and Radiopharm., Vol.25, pp.985-990 (1988). PPHP and PPA were prepared, purified and analyzed as previously described by Doerge, Biochem, Vol.27, p.11 (1988). The methyl ester of 1-methyl-benzimidazole-2-sulfinic acid was prepared by addition of hydrogen peroxide (5 equivalents of a 10 M solution) to MMBI (0.1 M) in methanol. The products, MeBI and the ester, were obtained following preparative TLC on silica (Uniplate, Analtech Co., Newark, DL) using 5% methanol/chloroform as eluant.
Inhibition of LPX activity by thiones was determined from the kinetics of iodide ion, guaiacol or ABTS oxidation assays conducted at 25° C. Kinetic parameters of suicide inactivation were determined as previously described. Doerge, Biochem. Vol.27, pp.3697-3700 (1988).

[2] = biological target: T2, TPX (Sus scrofa, UniProt P09933); test: TPX/hydrogen peroxide-catalyzed oxidation of ABTS and guaiacol; type: biochemical, hog
T2 sequence (P09933 15-926): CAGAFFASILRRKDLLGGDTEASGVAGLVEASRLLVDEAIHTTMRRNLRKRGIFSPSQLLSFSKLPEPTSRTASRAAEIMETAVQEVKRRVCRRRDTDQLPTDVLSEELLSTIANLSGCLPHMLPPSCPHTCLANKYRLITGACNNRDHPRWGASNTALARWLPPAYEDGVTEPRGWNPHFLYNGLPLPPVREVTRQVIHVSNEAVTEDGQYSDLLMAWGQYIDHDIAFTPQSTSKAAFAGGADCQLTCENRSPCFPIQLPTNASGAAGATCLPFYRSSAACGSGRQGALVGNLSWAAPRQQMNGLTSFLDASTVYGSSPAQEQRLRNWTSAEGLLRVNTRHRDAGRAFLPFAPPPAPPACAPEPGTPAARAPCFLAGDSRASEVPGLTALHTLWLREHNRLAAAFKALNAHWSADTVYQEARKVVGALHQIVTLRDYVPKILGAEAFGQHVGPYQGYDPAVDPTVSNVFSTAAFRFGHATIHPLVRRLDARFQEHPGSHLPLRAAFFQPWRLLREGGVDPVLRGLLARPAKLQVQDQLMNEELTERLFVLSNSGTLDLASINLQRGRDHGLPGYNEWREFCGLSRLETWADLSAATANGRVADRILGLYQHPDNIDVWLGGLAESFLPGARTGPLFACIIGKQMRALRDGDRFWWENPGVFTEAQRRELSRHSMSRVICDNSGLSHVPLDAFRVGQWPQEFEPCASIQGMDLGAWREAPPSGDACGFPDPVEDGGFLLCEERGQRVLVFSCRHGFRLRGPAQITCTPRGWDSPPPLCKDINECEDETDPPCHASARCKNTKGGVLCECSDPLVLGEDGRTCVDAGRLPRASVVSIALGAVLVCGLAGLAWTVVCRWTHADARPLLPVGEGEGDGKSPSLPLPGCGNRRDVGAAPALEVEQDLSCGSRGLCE
Source text: as §1, with “MeBI was purified by distillation and DMeBI^+ was synthesized and purified by recrystallization from ethyl acetate/methanol. 1-^13 C-MMBI was synthesized from ^13 CH3 I according to the procedure disclosed by Doerge, D.R., in, J. Lab. Comp. and Radiopharm., Vol.25, pp.985-990 (1988).” left out, “The methyl ester of 1-methyl-benzimidazole-2-sulfinic acid was prepared by addition of hydrogen peroxide (5 equivalents of a 10 M solution) to MMBI (0.1 M) in methanol. The products, MeBI and the ester, were obtained following preparative TLC on silica (Uniplate, Analtech Co., Newark, DL) using 5% methanol/chloroform as eluant.” left out

[3] = biological target: T1, LPX; test: LPX-catalyzed iodide ion oxidation (triiodide formation); type: biochemical, bovine
Source text: as §1, with “The products, MeBI and the ester, were obtained following preparative TLC on silica (Uniplate, Analtech Co., Newark, DL) using 5% methanol/chloroform as eluant.” left out
Inhibition of LPX activity by thiones was determined from the kinetics of iodide ion, guaiacol or ABTS oxidation assays conducted at 25° C. Kinetic parameters of suicide inactivation were determined as previously described. […]

[4] = biological target: T1, LPX; test: LPX iodide ion oxidation activity after incubation and dilution; type: biochemical, bovine; settings: for remaining activity at 100 µM: 100 μM DMMBI, 100 s at 25° C., 200-fold dilution, n=4, read-out: Rate (% of control)
Source text: as §1
The following experiment was performed to determine the effect of DMMBI oxidation on LPX activity. LPX (0.1 μM, final concentration) was incubated with hydrogen peroxide (100 μM), iodide ion (5 mM) and DMMBI (100 μM), as indicated in Table 2. After a 100 second incubation at 25° C., an aliquot was diluted 200-fold and the iodide ion oxidation activity determined. Values shown in Table 2, are averages +/- standard deviations (n=4) of the percentage relative to untreated LPX.

Cn1c(=S)n(C)c2ccccc21 [DMMBI, 1,3-dimethylbenzimidazole-2-thione]
LPX inactivation / loss of LPX activity [1]: does not inactivate LPX or TPX | effect on oxidation of ABTS and guaiacol [2]: does not affect LPX or TPX/hydrogen peroxide-catalyzed oxidation of the substrates ABTS and guaiacol | inhibition of iodide ion oxidation (triiodide formation) ([3]; LPX, H2O2, iodide ion): marked inhibition of iodide ion oxidation; also recorded: inhibits only iodide ion oxidation | lag period ([3]; dependence on DMMBI concentration): proportional to the concentration of DMMBI | remaining activity at 100 µM ([4]; LPX + DMMBI): 100 ± 4% | remaining activity at 100 µM ([4]; LPX + H2O2 + DMMBI + I-): 107 ± 6% | remaining activity at 100 µM ([4]; LPX + H2O2 + DMMBI): 104 ± 6% | loss of enzymatic activity ([4]; LPX/hydrogen peroxide, absence of iodide ion): did not cause any loss of enzymatic activity | loss of enzymatic activity ([4]; iodide ion present, DMMBI converted to DMeBI+, 1/200 dilution): no loss of enzymatic activity was detected
